Each compound was assayed against T1, GST-RIPK1 (recombinant GST-RIPK1 kinase domain (residues 1-327)) (Homo sapiens, UniProt Q13546) (assay: RIPK1-ADP-Glo enzymatic assay). Details: 25 nM GST-RIPK1, 300 μM ATP, 3 μM dephosphorylated-MBP; 30 minutes pre-incubation, 150 minutes reaction; ten-point titration.
T1 construct: recombinant GST-RIPK1 kinase domain (residues 1-327) enzyme; made in house; host or cells: baculovirus-transfected Sf21 insect cells
T1 sequence (Q13546 1-327): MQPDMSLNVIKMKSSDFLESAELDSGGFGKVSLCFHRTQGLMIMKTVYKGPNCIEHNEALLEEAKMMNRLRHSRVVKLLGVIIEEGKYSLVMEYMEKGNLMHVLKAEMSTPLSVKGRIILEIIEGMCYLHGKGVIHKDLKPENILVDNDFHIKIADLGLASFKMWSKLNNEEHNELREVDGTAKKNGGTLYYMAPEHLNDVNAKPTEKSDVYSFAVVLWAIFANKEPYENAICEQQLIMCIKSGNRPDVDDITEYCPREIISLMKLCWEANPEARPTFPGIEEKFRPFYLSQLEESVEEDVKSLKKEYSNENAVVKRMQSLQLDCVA
Format: biochemical
How it was run: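 Ten-point 1:3 titrations from 100000 nM, 1% DMSO, were preincubated 30 min with 25 nM GST-RIPK1 (1-327) before starting with 300 μM ATP plus 3 μM dephosphorylated MBP; 150 min reaction. ADP-Glo luminescence measured ATP-to-ADP conversion; EC50 by four-parameter sigmoidal regression.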

Compound | IC50 [nM]
C=CC(C)(C)C(=O)N1C[C@@H]2C[C@H]1c1cncc(C#N)c1O2 [Compound 1-95, (2S,5S)-4-(2,2-dimethylbut-3-enoyl)-2,3,4,5-tetrahydro-2,5-methanopyrido[3,4-f][1,4]oxazepine-9-carbonitrile] | 30
C#CC(C)(C)C(=O)N1C[C@@H]2C[C@H]1c1cncc(C#N)c1O2 [Compound 1-96, (2S,5S)-4-(2,2-dimethylbut-3-ynoyl)-2,3,4,5-tetrahydro-2,5-methanopyrido[3,4-f][1,4]oxazepine-9-carbonitrile] | 148
COC12CCC(C(=O)N3C[C@@H]4C[C@H]3c3cncc(C#N)c3O4)(CC1)C2 [Compound 1-97, (2S,5S)-4-(4-methoxybicyclo[2.2.1]heptane-1-carbonyl)-2,3,4,5-tetrahydro-2,5-methanopyrido[3,4-f][1,4]oxazepine-9-carbonitrile] | 92
CCC12CC(C(=O)N3C[C@@H]4C[C@H]3c3cncc(C#N)c3O4)(C1)C2 [Compound 1-98, (2S,5S)-4-(3-ethylbicyclo[1.1.1]pentane-1-carbonyl)-2,3,4,5-tetrahydro-2,5-methanopyrido[3,4-f][1,4]oxazepine-9-carbonitrile] | 57
CC(C)C12CC(C(=O)N3C[C@@H]4C[C@H]3c3cncc(C#N)c3O4)(C1)C2 [Compound 1-99, (2S,5S)-4-(3-isopropylbicyclo[1.1.1]pentane-1-carbonyl)-2,3,4,5-tetrahydro-2,5-methanopyrido[3,4-f][1,4]oxazepine-9-carbonitrile] | 48
N#Cc1cncc2c1O[C@H]1C[C@@H]2N(C(=O)C23CCC(C#N)(C2)C3)C1 [Compound 1-100, (2S,5S)-4-(4-cyanobicyclo[2.1.1]hexane-1-carbonyl)-2,3,4,5-tetrahydro-2,5-methanopyrido[3,4-f][1,4]oxazepine-9-carbonitrile] | 28
N#Cc1cncc2c1O[C@H]1C[C@@H]2N(C(=O)[C@H]2C[C@@H](Oc3ccc(F)cc3F)C2)C1 [Compound 1-101] | 132
N#Cc1cncc2c1O[C@H]1C[C@@H]2N(C(=O)[C@H]2C[C@H](Oc3ccc(F)cc3F)C2)C1 [Compound 1-102] | 76
CC(C)(OC(F)(F)F)C(=O)N1C[C@@H]2C[C@H]1c1cncc(C#N)c1O2 [Compound 1-103, (2S,5S)-4-(2-methyl-2-(trifluoromethoxy)propanoyl)-2,3,4,5-tetrahydro-2,5-methanopyrido[3,4-f][1,4]oxazepine-9-carbonitrile] | 163
CC12CC(C(=O)N3C[C@@H]4C[C@H]3c3cncc(C#N)c3O4)(C1)C2 [Compound 1-104, (2S,5S)-4-(3-methylbicyclo[1.1.1]pentane-1-carbonyl)-2,3,4,5-tetrahydro-2,5-methanopyrido[3,4-f][1,4]oxazepine-9-carbonitrile] | 203
CCCC12CC(C(=O)N3C[C@@H]4C[C@H]3c3cncc(C#N)c3O4)(C1)C2 [Compound 1-105, (2S,5S)-4-(3-propylbicyclo[1.1.1]pentane-1-carbonyl)-2,3,4,5-tetrahydro-2,5-methanopyrido[3,4-f][1,4]oxazepine-9-carbonitrile] | 92
N#Cc1cncc2c1O[C@H]1C[C@@H]2N(C(=O)C23CCC(CO2)C3)C1 [Compound 1-108, (2S,5S)-4-(2-oxabicyclo[2.2.1]heptane-1-carbonyl)-2,3,4,5-tetrahydro-2,5-methanopyrido[3,4-f][1,4]oxazepine-9-carbonitrile] | 269
CN1CC2CC1(C(=O)N1C[C@@H]3C[C@H]1c1cncc(C#N)c1O3)C2 [Compound 1-109, (2S,5S)-4-(2-methyl-2-azabicyclo[2.1.1]hexane-1-carbonyl)-2,3,4,5-tetrahydro-2,5-methanopyrido[3,4-f][1,4]oxazepine-9-carbonitrile] | 241
N#Cc1cncc2c1O[C@H]1C[C@@H]2N(C(=O)C2(C#N)CCC2)C1 [Compound 1-110, (2S,5S)-4-(1-cyanocyclobutane-1-carbonyl)-2,3,4,5-tetrahydro-2,5-methanopyrido[3,4-f][1,4]oxazepine-9-carbonitrile] | 129
N#Cc1cncc2c1O[C@H]1C[C@@H]2N(C(=O)C2(C#N)CCCC2)C1 [Compound 1-111, (2S,5S)-4-(1-cyanocyclopentane-1-carbonyl)-2,3,4,5-tetrahydro-2,5-methanopyrido[3,4-f][1,4]oxazepine-9-carbonitrile] | 184
CC(C)(C(=O)N1C[C@@H]2C[C@H]1c1cncc(F)c1O2)C(F)F [Compound 2-1, 3,3-Difluoro-1-((2S,5S)-9-fluoro-2,3-dihydro-2,5-methanopyrido[3,4-f][1,4]oxazepin-4(5H)-yl)-2,2-dimethylpropan-1-one] | 184
CC(C)(C(=O)N1C[C@@H]2C[C@H]1c1cncc(Cl)c1O2)C(F)F [Compound 2-2, 1-((2S,5S)-9-Chloro-2,3-dihydro-2,5-methanopyrido[3,4-f][1,4]oxazepin-4(5H)-yl)-3,3-difluoro-2,2-dimethylpropan-1-one] | 139
O=C(N1C[C@@H]2C[C@H]1c1cncc(Cl)c1O2)C12CCC(F)(CC1)C2 [Compound 2-3, ((2S,5S)-9-Chloro-2,3-dihydro-2,5-methanopyrido[3,4-f][1,4]oxazepin-4(5H)-yl)(4-fluorobicyclo[2.2.1]heptan-1-yl)methanone] | 8
O=C(N1C[C@@H]2C[C@H]1c1cncc(Cl)c1O2)C12CCC(C(F)(F)F)(CC1)C2 [Compound 2-4, [(2S,5S)-9-chloro-2,3-dihydro-2,5-methanopyrido[3,4-f][1,4]oxazepin-4(5H)-yl][4-(trifluoromethyl)bicyclo [2.2.1]heptan-1-yl]methanone] | 10
CC(F)(F)C(C)(C)C(=O)N1C[C@@H]2C[C@H]1c1cncc(Cl)c1O2 [Compound 2-5, 1-[(2S,5S)-9-chloro-2,3-dihydro-2,5-methanopyrido[3,4-f][1,4]oxazepin-4(5H)-yl]-3,3-difluoro-2,2-dimethylbutan-1-one] | 18
CC(C)(C(=O)N1C[C@@H]2C[C@H]1c1cncc(Cl)c1O2)C1CC1 [Compound 2-6] | 24
O=C(N1C[C@@H]2C[C@H]1c1cncc(F)c1O2)C12CCC(F)(CC1)C2 [Compound 2-7, (4-fluorobicyclo[2.2.1]heptan-1-yl)[(2S,5S)-9-fluoro-2,3-dihydro-2,5-methanopyrido[3,4-f][1,4]oxazepin-4(5H)-yl]methanone] | 26
CC(C)(C)C(=O)N1C[C@@H]2C[C@H]1c1cncc(Br)c1O2 [Compound 2-8, 1-((2S,5S)-9-bromo-2,3-dihydro-2,5-methanopyrido[3,4-f][1,4]oxazepin-4(5H)-yl)-2,2-dimethylpropan-1-one] | 394
CCC(C)(C)C(=O)N1C[C@@H]2C[C@H]1c1cncc(Cl)c1O2 [Compound 2-9, 1-((2S,5S)-9-chloro-2,3-dihydro-2,5-methanopyrido[3,4-f][1,4]oxazepin-4(5H)-yl)-2,2-dimethylbutan-1-one] | 41
CC1(C(=O)N2C[C@@H]3C[C@H]2c2cncc(Cl)c2O3)CCC1 [Compound 2-10, ((2S,5S)-9-chloro-2,3-dihydro-2,5-methanopyrido[3,4-f][1,4]oxazepin-4(5H)-yl)(1-methylcyclobutyl)methanone] | 227
